Data: patent US20140024638A1, “TREATMENT OF COGNITIVE DYSFUNCTION IN SCHIZOPHRENIA” (TARGACEPT, INC., priority 2011, published 2014)

Columns and labels:
[1] = test system: patients with schizophrenia; assay: Groton Maze Learning Task (GMLT) of the CogState Schizophrenia Battery, Phase 2 trial; type: in vivo, human; conditions: for GML (Total Error) LOG: Mean Difference ± SE between TC-5619 and Placebo (Placebo-TC5619) / GML (Total Error) LOG: Adjusted Mean: All Patients; for GML (Total Error) LOG: Adjusted Mean: SE 0.02; for GMLT primary efficacy outcome measure: result against protocol criteria: positive outcome = superiority over placebo, one-sided p-value <0.10 after adjusting for 3 comparisons (Weeks 4, 8, 12), adjusted p-value=0.054, unadjusted p 0.018 at 4 weeks, 0.041 at 12 weeks; for GMLT log (10) transformed: Mean (SE): tobacco users
Protocol: (§1) The double blind, placebo controlled Phase 2 trial was conducted at 7 sites in the United States and 12 sites in India. […] Of the randomized patients, approximately 69% were male and approximately 46% were users of tobacco products. […] The primary efficacy outcome measure was GMLT, and the trial included a number of other scales as secondary efficacy outcome measures.
(§2) The GMLT is a computerized test designed to assess executive function (the ability to organize cognitive processes, including the ability to plan, prioritize, stop and start activities, shift from one activity to another activity and to monitor one's own behavior). Impaired executive function is thought to be an important aspect of cognitive dysfunction in schizophrenia.

[2] = in vivo; cited from earlier work
[3] = test system: patients with schizophrenia; assay: Subject Global Impression - Cognition scale (SGI-Cog), Phase 2 trial; type: in vivo, human; conditions: for SGI-COGNITION TOTAL BY PATIENT: Adjusted Mean / SGI-COGNITION TOTAL BY PATIENT: Mean Difference ± SE between TC-5619 and Placebo (Placebo-TC5619): All Patients; for SGI-Cog: Mean (SE): tobacco users; for SGI-Cog: Mean (SEM): total population
Protocol: as §1

[4] = in vivo; cited from earlier work; remark: listed apart in the source
[5] = test system: patients with schizophrenia; assay: Phase 2 clinical proof of concept trial, overall efficacy; type: in vivo, human; conditions: Phase 2 trial
Protocol: as §1, §2

[6] = test system: patients with schizophrenia; assay: Clinical Global Impression - Severity (CGI-S), Phase 2 trial; type: in vivo, human; conditions: for CGI-SEVERITY: Adjusted Mean / CGI-SEVERITY: Mean Difference ± SE between TC-5619 and Placebo (Placebo-TC5619): All Patients; for CGI-S: Mean (SE): tobacco users; for CGI-S: Mean (SEM): total population
Protocol: as §1

healthy volunteers = assay: phase 1 trials in healthy volunteers; type: in vivo, human
[7] = water solubility (salt screening); type: physicochemical

## O=C(N[C@@H]1C2CCN(CC2)[C@H]1Cc1cccnc1)c1cc2ccccc2o1 (single isomer, unassigned) [TC-5619]
[1]; Week 1, 1 mg daily, one-sided 90% CI (−0.03, ∞), one-sided P 0.6709
  GML (Total Error) LOG: Mean Difference ± SE between TC-5619 and Placebo (Placebo-TC5619): −0.01 ± 0.02
[1]; Week 4, 1 mg daily, placebo 0.02
  GML (Total Error) LOG: Adjusted Mean: −0.03
[1]; Week 4, 1 mg daily, one-sided 90% CI (0.02, ∞), one-sided P 0.0180
  GML (Total Error) LOG: Mean Difference ± SE between TC-5619 and Placebo (Placebo-TC5619): 0.05 ± 0.02
[1]; Week 8, 5 mg daily, placebo −0.02
  GML (Total Error) LOG: Adjusted Mean: −0.05
[1]; Week 8, 5 mg daily, one-sided 90% CI (−0.00, ∞), one-sided P 0.1308
  GML (Total Error) LOG: Mean Difference ± SE between TC-5619 and Placebo (Placebo-TC5619): 0.02 ± 0.02
[1]; Week 12, 25 mg daily, placebo −0.02
  GML (Total Error) LOG: Adjusted Mean: −0.06
[1]; Week 12, 25 mg daily, one-sided 90% CI (0.01, ∞), one-sided P 0.0405
  GML (Total Error) LOG: Mean Difference ± SE between TC-5619 and Placebo (Placebo-TC5619): 0.04 ± 0.02
[1]; non-users
  GMLT activity in non-users of tobacco: no activity
[1]
  GMLT primary efficacy outcome measure: result against protocol criteria: met the pre-defined success criteria
[1]; listed as (2S,3R)—N-(2-((3-pyridinyl)methyl)-1-azabicyclo[2.2.2]oct-3-yl)benzofuran-2-carb
  GMLT primary efficacy outcome measure: result against protocol criteria: met the protocol criteria for a positive result
[1]; subgroup comparison
  GMLT results, patients at study sites in United States as compared to study sites in India: favorable
  GMLT results, tobacco users as compared to non-users: favorable for tobacco users as compared to non-users
[1]; Week 4, 1 mg daily, 1-tailed p = 0.014
  GMLT log (10) transformed: Mean (SE): 0.06 (.03) p = 0.014
[1]; Week 8, 5 mg daily, 1-tailed p = 0.086
  GMLT log (10) transformed: Mean (SE): 0.04 (0.03) p = 0.086
[1]; Week 12, 25 mg daily, 1-tailed p = 0.002
  GMLT log (10) transformed: Mean (SE): 0.07 (0.02) p = 0.002
[1]; total population (tobacco users and non-users), Week 4, 1 mg daily, 1-tailed p = 0.018
  GMLT log (10) transformed: Mean (SEM): 0.05 (0.02); p = 0.018
[1]; total population, Week 8, 5 mg daily, 1-tailed p = 0.131
  GMLT log (10) transformed: Mean (SEM): 0.02 (0.02); p = 0.131
[1]; total population, Week 12, 25 mg daily, 1-tailed p = 0.041
  GMLT log (10) transformed: Mean (SEM): 0.04 (0.02); p = 0.041
[2]
  efficacy in preclinical models of memory: had efficacy
[3]; Week 1, 1 mg daily, SE 0.19, placebo 11.37
  SGI-COGNITION TOTAL BY PATIENT: Adjusted Mean: 11.18
[3]; Week 1, 1 mg daily, one-sided 90% CI (−0.07, ∞), one-sided P 0.1757
  SGI-COGNITION TOTAL BY PATIENT: Mean Difference ± SE between TC-5619 and Placebo (Placebo-TC5619): 0.19 ± 0.20
[3]; Week 4, 1 mg daily, SE 0.24, placebo 10.65
  SGI-COGNITION TOTAL BY PATIENT: Adjusted Mean: 10.60
[3]; Week 4, 1 mg daily, one-sided 90% CI (−0.31, ∞), one-sided P 0.4282
  SGI-COGNITION TOTAL BY PATIENT: Mean Difference ± SE between TC-5619 and Placebo (Placebo-TC5619): 0.05 ± 0.28
[3]; Week 8, 5 mg daily, SE 0.29, placebo 9.80
  SGI-COGNITION TOTAL BY PATIENT: Adjusted Mean: 9.79
[3]; Week 8, 5 mg daily, one-sided 90% CI (−0.45, ∞), one-sided P 0.4914
  SGI-COGNITION TOTAL BY PATIENT: Mean Difference ± SE between TC-5619 and Placebo (Placebo-TC5619): 0.01 ± 0.36
[3]; Week 12, 25 mg daily, SE 0.31, placebo 9.61
  SGI-COGNITION TOTAL BY PATIENT: Adjusted Mean: 8.95
[3]; Week 12, 25 mg daily, one-sided 90% CI (−0.16, ∞), one-sided P 0.0455
  SGI-COGNITION TOTAL BY PATIENT: Mean Difference ± SE between TC-5619 and Placebo (Placebo-TC5619): 0.66 ± 0.39
[3]; secondary outcome measure, patient self-assessment of cognitive change
  Subject Global Impression - Cognition scale, result in words: encouraging efficacy signals
[3]; Week 4, 1 mg daily, 1-tailed p = 0.606
  SGI-Cog: Mean (SE): −0.13 (0.47); p = 0.606
[3]; Week 8, 5 mg daily, 1-tailed p = 0.314
  SGI-Cog: Mean (SE): 0.24 (0.49); p = 0.314
[3]; Week 12, 25 mg daily, 1-tailed p = 0.109
  SGI-Cog: Mean (SE): 0.65 (0.52); p = 0.109
[3]; Week 4, 1 mg daily, 1-tailed p = 0.428
  SGI-Cog: Mean (SEM): 0.05 (0.28); p = 0.428
[3]; Week 8, 5 mg daily, 1-tailed p = 0.491
  SGI-Cog: Mean (SEM): 0.01 (0.36); p = 0.491
[3]; Week 12, 25 mg daily, 1-tailed p = 0.046
  SGI-Cog: Mean (SEM): 0.66 (0.39); p = 0.046
[4]
  efficacy in preclinical models of schizophrenia: effective
[5]
  efficacy by tobacco use: showed efficacy primarily in tobacco users
[5]; add-on to quetiapine or risperidone, 12 weeks, 1/5/25 mg daily
  efficacy in Cognitive Deficits in Schizophrenia (GMLT, SANS, CGI-Global, SGI-Cog, CogState objective cognitive endpoints): positive efficacy
[6]; Week 1, 1 mg daily, SE 0.03, placebo −0.05
  CGI-SEVERITY: Adjusted Mean: −0.03
[6]; Week 1, 1 mg daily, one-sided 90% CI (−0.07, ∞), one-sided P 0.7588
  CGI-SEVERITY: Mean Difference ± SE between TC-5619 and Placebo (Placebo-TC5619): −0.02 ± 0.03
[6]; Week 4, 1 mg daily, SE 0.05, placebo −0.09
  CGI-SEVERITY: Adjusted Mean: −0.06
[6]; Week 4, 1 mg daily, one-sided 90% CI (−0.10, ∞), one-sided P 0.6737
  CGI-SEVERITY: Mean Difference ± SE between TC-5619 and Placebo (Placebo-TC5619): −0.02 ± 0.06
[6]; Week 8, 5 mg daily, SE 0.05, placebo −0.24
  CGI-SEVERITY: Adjusted Mean: −0.23
[6]; Week 8, 5 mg daily, one-sided 90% CI (−0.09, ∞), one-sided P 0.5440
  CGI-SEVERITY: Mean Difference ± SE between TC-5619 and Placebo (Placebo-TC5619): −0.01 ± 0.06
[6]; Week 12, 25 mg daily, SE 0.07, placebo −0.29
  CGI-SEVERITY: Adjusted Mean: −0.31
[6]; Week 12, 25 mg daily, one-sided 90% CI (−0.11, ∞), one-sided P 0.4495
  CGI-SEVERITY: Mean Difference ± SE between TC-5619 and Placebo (Placebo-TC5619): 0.01 ± 0.09
[6]; secondary outcome measure
  Clinical Global Impression - Severity, result in words: did not demonstrate a drug effect
[6]; Week 4, 1 mg daily, 1-tailed p = 0.434
  CGI-S: Mean (SE): 0.02 (0.09); p = 0.434
[6]; Week 8, 5 mg daily, 1-tailed p = 0.224
  CGI-S: Mean (SE): 0.08 (0.10); p = 0.224
[6]; Week 12, 25 mg daily, 1-tailed p = 0.308
  CGI-S: Mean (SE): 0.07 (0.14); p = 0.308
[6]; Week 4, 1 mg daily, 1-tailed p = 0.674
  CGI-S: Mean (SEM): −0.02 (0.06); p = 0.674
[6]; Week 8, 5 mg daily, 1-tailed p = 0.544
  CGI-S: Mean (SEM): −0.01 (0.06); p = 0.544
[6]; Week 12, 25 mg daily, 1-tailed p = 0.450
  CGI-S: Mean (SEM): 0.01 (0.09); p = 0.450
Healthy volunteers; 6.7 mg administered
  attention: robust improvement in attention
Healthy volunteers; phase 1 trials
  tolerability: generally well tolerated
[7]
  water solubility: very limited
